Active and inactive are the calls of the source. How the calls were made is not given here.
Molecular target: Toxin B (TcdB) glycohydrolase, Clostridioides difficile 630
Assay: TcdB glycohydrolase inhibitors, dose response, biochemical, cherry-pick, plate reader (AID 720512)
Conditions: recombinant TcdB glycohydrolase activity

| SMILES | activity change, negative = inhibition (at 19.5 µM (top of the series)) | also measured |
| --- | --- | --- |
| COc1ccc(C(=O)NC(CC(=O)O)c2cc([N+](=O)[O-])ccc2Cl)c(SC)c1 (stereo not given) | inactive |  |
| O=C(CSc1ccc2nnc(-c3ccc(F)cc3)n2n1)N1CCOCC1 | inactive |  |
| Cc1cc(N/N=C/c2ccc(O)cc2)c2cccc(C)c2n1 |  | AC50: > 39 µM (inactive) |
| COc1ccc(C(=O)Nc2c(-c3cccs3)c(=O)c3ccccc3n2C)cc1 | inactive |  |
| COc1ccc(CNC(=O)C2=CC(c3ccc(C)cc3)=NS(=O)(=O)N2C)cc1 | inactive |  |
| Oc1ccc(Nc2nc(Cl)nc(NCc3ccco3)n2)cc1 |  | AC50: 21.7 µM |
| COc1ccc(/C=C2\CCC(C3CCCC3)C2=O)cc1 (stereo not given) | inactive |  |
| COCCNc1oc(/C=C/c2ccccc2)nc1C#N | inactive |  |
| CNC(C(=O)c1ccccc1)C(OC)c1cccc([N+](=O)[O-])c1 (stereo not given) | inactive |  |
| CC(C)Sc1nnc(NC(=O)c2ccco2)s1 | inactive |  |
| FC(F)(F)c1cc(Cl)c2nc(-c3ccccc3)c(Cc3ccsc3)n2c1 | inactive |  |
| Cc1cccc(/C=C/c2onc(C)c2S(=O)(=O)N2CCC(C(=O)N3CCC(C)CC3)CC2)c1 | inactive |  |
| CC(=O)N1CC[C@@H]2[C@@H](CO)Nc3ccc(-c4ccccc4)cc3[C@@H]21 |  | activity change, negative = inhibition (at 21 µM (top of the series)): inactive |
| COc1ccc(NS(=O)(=O)c2cc(N=Nc3c(O)[nH]c(=O)[nH]c3=O)ccc2Cl)cc1 | inactive |  |
| Cc1onc(-c2c(F)cccc2Cl)c1C(=O)Nc1nnc(C(F)(F)F)s1 | inactive |  |
| COc1ccc(C(=O)Nc2ccccc2C(=O)O)cc1Cl | inactive |  |
| COc1ccc([N+](=O)[O-])cc1NC(=S)NC(C)=O | inactive |  |
| NC1=NC[C@H](Cc2ccc(O)cc2)N1CCc1cc(C(F)(F)F)cc(C(F)(F)F)c1 | inactive |  |
| CCN(C(=O)CN1C(=O)NC2(CCC(C)CC2)C1=O)C1CCCCC1 (stereo not given) | inactive |  |
| O=c1[nH][nH]c(=O)c2c1[nH]c(=S)n2Cc1ccccc1 | inactive |  |
| Cc1ccc(SCCC(=O)N/N=C/c2cccnc2)cc1 | inactive |  |
| Cc1ccc(-c2csc(NC(=O)/C=C/c3ccco3)c2C(=O)O)cc1 | inactive |  |
| COc1cc(/C=C/C(=O)OCC(=O)N(C)Cc2ccccc2)ccc1O | inactive |  |

| SMILES | activity change, negative = inhibition (at 19.5 µM (top of the series)) | also measured |
| --- | --- | --- |
| COc1ccccc1/C=C/c1onc(C)c1S(=O)(=O)N1CCC(C(=O)NC(C)C)CC1 | inactive |  |
| O=C(C[C@@H]1CC[C@@H]2[C@H](COC[C@@H](O)CN2C(=O)c2ccccn2)O1)NC1CCC1 | inactive |  |
| COc1ccc(C2=NS(=O)(=O)N(C)C(C(=O)N3CCOCC3)=C2)cc1 | inactive |  |
| CCc1ccc(Nc2n[n+](-c3ccccc3)c(-c3ccc(OC)c(Br)c3)s2)cc1 | inactive |  |
| COc1ccccc1N1CC(O)=C(c2nc3ccccc3s2)C1=N | inactive |  |
| COc1ccccc1/C=C/c1onc(C)c1S(=O)(=O)N1CCC(C(=O)NC2CCCCCC2)CC1 | inactive |  |
| CCOC(=O)c1sc(=S)[nH]c1C | inactive |  |
| O=c1[nH]nc(-c2cc(-c3ccccc3)nc3ccccc23)o1 | inactive |  |
| COc1ccc(C)cc1NC(=O)C(OC(=O)C1=NNC(=O)CC1)c1ccccc1 (stereo not given) | inactive |  |
| Cc1nn(C2CC(O)C(O)C(CO)O2)c(=O)[nH]c1=O (stereo not given) | inactive |  |
| COc1ccccc1C1NC(=O)NC(C)=C1C(=O)OC1CCCCC1 (stereo not given) | inactive |  |
| CC(C)Cc1[nH]c(=O)c(C#N)c2c1CCC2 | inactive |  |
| Cc1ccc(C2=NS(=O)(=O)N(C)C(C(=O)NC(C)c3ccccc3)=C2)cc1 (stereo not given) | inactive |  |
| COc1ccc(NC(=O)c2cc(S(=O)(=O)N3CCc4ccccc43)cn2C)cc1OC | inactive |  |
| CNC(=O)C[C@H]1CC[C@@H]2[C@@H](COc3ccc(NC(=O)c4cccc(OC)c4)cc3C(=O)N2C)O1 | inactive |  |
| Cc1cc(=O)oc2c(N)c(O)ccc12 | inactive |  |
| COc1ccc(-c2nc3ccc([N+](=O)[O-])cc3[nH]2)cc1 | inactive |  |
| S=C(c1cn(Cc2ccccc2)c2ccccc12)N1CCOCC1 | inactive |  |
| COc1cc(C=NNC(=O)c2ccccc2-n2cccc2)ccc1O | inactive |  |
| CCOc1ccccc1/C=C/c1onc(C)c1S(=O)(=O)N1CCC(C(=O)N2CCCCCC2)CC1 | inactive |  |
| c1ccc2[nH]c(-c3ccc4c(c3)OCO4)nc2c1 | inactive |  |
| CC(Oc1ccc(Cl)cc1Cl)C(=O)Nc1ccc(O)cc1 (stereo not given) | inactive |  |
| O=[N+]([O-])c1c(Nc2ccccc2O)ccc2nonc12 | inactive |  |

| SMILES | activity change, negative = inhibition (at 19.5 µM (top of the series)) | also measured |
| --- | --- | --- |
| COc1ccc(Cl)cc1NC(=O)CSc1nnc(-c2ccco2)o1 | inactive |  |
| O=C(C[C@H]1C[C@H]2c3cc(NC(=O)c4ccc5c(c4)OCO5)ccc3O[C@H]2[C@@H](CO)O1)NCc1cccc(F)c1 | inactive |  |
| CN1C(=O)NC(c2ccc(O)cc2)C2=C1CN(c1ccc(O)cc1)C2=O (stereo not given) | inactive |  |
| COC(=O)c1ccc(C23CC4(C2)[C@H](CN(Cc2ccc(C(F)(F)F)cc2)[C@@H]4c2ccccc2)C3c2ccc(Cl)nc2)cc1 (stereo not given in full) | inactive |  |
| COc1cc(/C=C/C(=O)OCC(=O)NC(=O)NC(C)C)ccc1O |  | AC50: > 39 µM (inactive) |
| COCC(=O)N1CC[C@@H]2[C@H]1c1cc(-c3ccccc3)ccc1N(C)[C@H]2CO | inactive |  |
| COCC#Cc1ccc2c(c1)O[C@H](CN(C)C(=O)CC1CC1)[C@@H](C)CN([C@H](C)CO)S2(=O)=O | inactive |  |
| CNc1nc(C23CC4CC(CC(C4)C2)C3)cs1 | inactive |  |
| Cc1nc(S(=O)(=O)N(C)Cc2ccccc2)c(C#N)c(C)c1Cl | inactive |  |
| O=C(C[C@H]1CC[C@@H]2[C@H](COC[C@@H](O)CN2C(=O)c2ccccn2)O1)NC1CCC1 | inactive |  |
| COc1ccc(C(=O)/C=C/c2ccc(O)cc2)c2c1CC(O)C(C)(C)O2 (stereo not given) |  | AC50: > 39 µM (inactive) |
| CCOC(=O)N1CCN=C1SCc1ccc(Cl)c(Cl)c1 | inactive |  |
| O=C(c1ccc2c(c1)N(Cc1ccccc1F)C(=O)c1ccccc1S2)N1CCOCC1 | inactive |  |
| Cc1cccc(/C=C/c2onc(C)c2S(=O)(=O)N2CCC(C(=O)N3CCCCC3)CC2)c1 | inactive |  |
| O=C(NC(=S)Nc1ccc(O)cc1)c1cncc(Br)c1 | inactive |  |
| CC(=O)Nc1ccc(Oc2nc(-c3ccccn3)nc3ccccc23)cc1 | inactive |  |
| NC(=O)Nc1ccc(Nc2ccccc2)cc1 | inactive |  |
| O=C(O)COn1c(-c2ccc(Cl)cc2)nc2ccc(Cl)cc21 |  | AC50: > 39 µM (inactive) |
| O=c1[nH]nc(-c2ccc(F)cc2)cc1Cc1ccccc1 | inactive |  |
| CNC(=O)C1CCN(S(=O)(=O)c2c(C)noc2/C=C/c2cccc(OC)c2)CC1 | inactive |  |
| CCOC(=O)c1ccc[n+](CC(=O)c2ccc(NC(=O)c3ccccc3)cc2)c1 | inactive |  |
| Oc1ccc(-c2nccs2)cc1 | inactive |  |
| COc1ccc(NC(=O)c2cc(C)nc3ccccc23)c(OC)c1 | inactive |  |

| SMILES | activity change, negative = inhibition (at 19.5 µM (top of the series)) | also measured |
| --- | --- | --- |
| CC1(C)Cc2nc(Cl)c(C#N)cc2CO1 | inactive |  |
| COc1ccc(Cl)cc1-n1c(=S)sc2c(=O)n(-c3ccc(F)cc3)c(SCC(=O)O)nc21 | inactive |  |
| COc1ccc(C=C2CCC3C(=O)CCCC3(C)C2=O)cc1 (stereo not given) | inactive |  |
| Cc1c(CCCC(=O)O)sc(N)c1C(=O)c1cccc(C(F)(F)F)c1 | inactive |  |
| O=S(=O)(NC1CCCCCCC1)c1ccc(F)cc1 | inactive |  |
| CCCCNC(=O)C1CCN(S(=O)(=O)c2c(C)noc2/C=C\c2ccc(OC)cc2)CC1 | inactive |  |
| Cc1noc(/C=C/c2ccccc2F)c1S(=O)(=O)N1CCC(C(=O)N2CCN(C)CC2)CC1 | inactive |  |
| COc1ccc(C2=NS(=O)(=O)N(C)C(C(=O)NC(C)c3ccccc3)=C2)cc1OC (stereo not given) | inactive |  |
| CCCNC(=O)N1CC[C@@H]2[C@H]1c1cc(-c3ccccc3)ccc1N(C)[C@H]2CO | inactive |  |
| COc1cc(/C=N/NC(=O)CSc2ccccn2)ccc1O | inactive |  |
| COc1ccc(NC(=O)CSc2nccn2C)cc1S(N)(=O)=O | inactive |  |
| COc1ccccc1-c1cn[nH]c1-c1ccc(O)cc1O | inactive |  |
| O=C(NNc1ccc(-c2csnn2)cc1)c1ccccc1C(F)(F)F | inactive |  |
| O=C(NC(=S)Nc1ccc(N2CCOCC2)cc1)c1ccccc1 |  | AC50: > 39 µM (inactive) |
| COC(=O)C1=C[C@@H](C(=O)OC)[C@@H]2C3=C(C(=O)[C@]2(C)NC(=O)c2ccccc2)[C@H](C)n2c(=O)n(C)c(=O)n2[C@@H]3C1 | inactive |  |
| COc1ccccc1CNC(=O)CN(c1ccc(C)cc1)S(=O)(=O)c1c(C)n[nH]c1C | inactive |  |
| CC(C)OC(=O)c1cccc(C(=O)O)n1 | inactive |  |
| C=C1CCN(Cc2ccccc2)S(=O)(=O)c2ccccc21 | inactive |  |
| COc1ccc(C(CNC(=O)c2oc3ccc(OC)cc3c2C)N2CCCC2)cc1 (stereo not given) | inactive |  |
| COc1cc(C(=O)Nc2scc(-c3ccccc3)c2C(=O)O)cc(OC)c1OC | inactive |  |
| COc1ccc(NS(=O)CCCc2ccccc2)cc1 (stereo not given) | inactive |  |
